PubChem BioAssay (NCI)
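Abbreviation: GI50, concentration required for 50% inhibition of growth. TGI marks complete inhibition of growth.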

Columns and labels:
Test in all cases: NCI anticancer screen, dose series, 384-well format
TK-10 renal = system: TK-10 renal
HCT-15 colon = system: HCT-15 colon
PC-3 prostate = system: PC-3 prostate
DU-145 prostate = system: DU-145 prostate
SK-MEL-5 melanoma = system: SK-MEL-5 melanoma
SN12C renal = system: SN12C renal
HT29 colon = system: HT29 colon
SK-OV-3 ovarian = system: SK-OV-3 ovarian
RXF 393 renal = system: RXF 393 renal
SF-268 CNS = system: SF-268 CNS
SNB-75 CNS = system: SNB-75 CNS
KM12 colon = system: KM12 colon
OVCAR-5 ovarian = system: OVCAR-5 ovarian
SK-MEL-28 melanoma = system: SK-MEL-28 melanoma
LOX IMVI melanoma = system: LOX IMVI melanoma
BT-549 breast = system: BT-549 breast
EKVX NSCLC = system: EKVX NSCLC
MCF7 breast = system: MCF7 breast
SK-MEL-2 melanoma = system: SK-MEL-2 melanoma
CAKI-1 renal = system: CAKI-1 renal
MOLT-4 leukemia = system: MOLT-4 leukemia
SW-620 colon = system: SW-620 colon
SF-295 CNS = system: SF-295 CNS
K-562 leukemia = system: K-562 leukemia
HS 578T breast = system: HS 578T breast
M14 melanoma = system: M14 melanoma
A498 renal = system: A498 renal
OVCAR-8 ovarian = system: OVCAR-8 ovarian
T-47D breast = system: T-47D breast
SF-539 CNS = system: SF-539 CNS

In the case of `CC(=O)OC1C(C)OC(Oc2c(-c3ccc(O)cc3)oc3cc(O)cc(O)c3c2=O)C(O)C1OC(C)=O` (stereo not given), the GI50 (TK-10 renal) is reported as > 100 µM, the TGI (TK-10 renal) is reported as > 100 µM and the GI50 (HCT-15 colon) is reported as 87.7 µM. For the same compound, the TGI (HCT-15 colon) was > 100 µM, the GI50 (PC-3 prostate) was 38.9 µM and the TGI (PC-3 prostate) was > 100 µM. It also gave a GI50 (DU-145 prostate) of 27.6 µM, a TGI (DU-145 prostate) of 77.1 µM and a GI50 (SK-MEL-5 melanoma) of 32.5 µM. For the same compound, the TGI (SK-MEL-5 melanoma) was > 100 µM, the GI50 (SN12C renal) was 32.2 µM and the TGI (SN12C renal) was > 100 µM. The GI50 (HT29 colon) was 63.6 µM, the TGI (HT29 colon) was > 100 µM and the GI50 (SK-OV-3 ovarian) was 46.3 µM. For the same compound, the TGI (SK-OV-3 ovarian) was > 100 µM, the GI50 (RXF 393 renal) was 23 µM and the TGI (RXF 393 renal) was 65.9 µM. It also gave a GI50 (SF-268 CNS) of 28.8 µM, a TGI (SF-268 CNS) of 92.7 µM and a GI50 (SNB-75 CNS) of 32 µM. For the same compound, the TGI (SNB-75 CNS) was 97 µM, the GI50 (KM12 colon) was 41.9 µM and the TGI (KM12 colon) was > 100 µM. The GI50 (OVCAR-5 ovarian) was > 100 µM, the TGI (OVCAR-5 ovarian) was > 100 µM and the GI50 (SK-MEL-28 melanoma) was 32.2 µM. For the same compound, the TGI (SK-MEL-28 melanoma) was > 100 µM, the GI50 (LOX IMVI melanoma) was 31.6 µM and the TGI (LOX IMVI melanoma) was > 100 µM. It also gave a GI50 (BT-549 breast) of 19.4 µM, a TGI (BT-549 breast) of 44.7 µM and a GI50 (EKVX NSCLC) of 83.8 µM. For the same compound, the TGI (EKVX NSCLC) was > 100 µM, the GI50 (MCF7 breast) was 37.2 µM and the TGI (MCF7 breast) was > 100 µM. The GI50 (SK-MEL-2 melanoma) was 30 µM, the TGI (SK-MEL-2 melanoma) was 73.8 µM and the GI50 (CAKI-1 renal) was > 100 µM. The TGI (CAKI-1 renal) was > 100 µM, the GI50 (MOLT-4 leukemia) was 17.4 µM and the TGI (MOLT-4 leukemia) was 31.9 µM. For the same compound, the GI50 (SW-620 colon) was 59.1 µM, the TGI (SW-620 colon) was > 100 µM and the GI50 (SF-295 CNS) was 33.9 µM. The TGI (SF-295 CNS) was > 100 µM, the GI50 (K-562 leukemia) was 34.4 µM and the TGI (K-562 leukemia) was > 100 µM. For the same compound, the GI50 (HS 578T breast) was 21.5 µM, the TGI (HS 578T breast) was 62.4 µM and the GI50 (M14 melanoma) was 39.8 µM. For the same compound, the TGI (M14 melanoma) was > 100 µM, the GI50 (A498 renal) was 92.1 µM and the TGI (A498 renal) was > 100 µM. The GI50 (OVCAR-8 ovarian) was 31.4 µM, the TGI (OVCAR-8 ovarian) was > 100 µM and the GI50 (T-47D breast) was 19.5 µM. For the same compound, the TGI (T-47D breast) was 47.7 µM, the GI50 (SF-539 CNS) was > 100 µM and the TGI (SF-539 CNS) was > 100 µM.
